# Assay: In vitro drug release, USP 32 apparatus II dissolution
# Format: physicochemical
# Details: pH 6.8 (standard buffer KH2PO4/NaOH)
# Experimental: Drug release was assessed using a USP 32 apparatus II dissolution system (Erweka DT 700, Erweka GmbH, Heusenstamm, Germany). Temperature and stirring rate was at 37±0.5° C. and 50 rpm respectively while the dissolution media was 0.1N HCl, buffers pH 1.5 and 4.5. Samples were withdrawn at predetermined intervals and replaced with the same volume of fresh medium, and the quantity of L-dopa released was quantified using UV spectroscopy. In vitro drug release studies were also undertaken for E3 matrices formulated from IPBs in varying normalities of acetic acid in buffer pH 1.5 (standard buffer KCl/HCl), pH 4.5 (0.025M KH2PO4/H2PO4) and pH 6.8 (standard buffer KH2PO4/NaOH) was employed to observe the behavior of the matrices and not for drug release as the model drug L-dopa was unstable at such pH values.
# The incorporation of polymer-lipid nanoparticles into the IPB was undertaken as described earlier via direct compression. However, the L-dopa-loaded polymer-lipid nanoparticles was incorporated instead of L-dopa alone while the in vitro drug release was assessed as described earlier.
smiles,measurement,value
"N[C@@H](Cc1ccc(O)c(O)c1)C(=O)O [L-dopa, 3-(3,4-dihydroxyphenyl)-L-alanine]",stability of the model drug in dissolution medium,unstable

# — patent publication US20140005269A1, “POLYMERIC MATRIX OF POLYMER-LIPID NANOPARTICLES AS A PHARMACEUTICAL DOSAGE FORM” (priority 2010, published 2014)
